row,SMILES,melting point
1,Cn1cc(-c2ccccc2)c(=O)c(-c2cccc(S(=O)(=O)c3ccccc3)c2)c1,65 to 72 °C
2,CC(=O)NCCc1ccc(CN2CCN(c3ccccc3)CC2)cc1,117 to 118 °C
3,Cc1cccc(-c2cc(C(F)(F)F)cc3c2OC(CN)C3)c1 (stereo unspecified),> 250 °C
4,O=C(O)c1ccnc(-c2ccc(Cl)c(C(=O)NCC34CC5CC(CC(C5)C3)C4)c2)c1,284 to 287 °C
5,NCc1cc(-c2ccccc2)no1,50 °C
6,O=C(Nc1cc2ncc(CN3CCCC3)cc2cc1F)c1ccc(-c2ccc(Cl)cc2)cc1,218 to 220 °C
7,N#Cc1c(SSc2cn(-c3c(Cl)cc(C(F)(F)F)cc3Cl)c(Cl)c2C#N)cn(-c2c(Cl)cc(C(F)(F)F)cc2Cl)c1Cl,220 °C
8,CN1CCC(C2Cc3c(O)cccc3C(=O)N2)CC1 (stereo unspecified),216 to 218 °C
9,CC(=O)OCCCCCn1ccc(=O)c(O)c1C,132 to 133 °C
10,CCCOc1ccccc1-c1nc2cc(NC)ccc2c(=O)[nH]1,204 to 205 °C
11,O=C1C(c2ccccc2)CC=C2c3ccsc3CCN12 (stereo unspecified),159 to 161 °C
12,COc1c(Cl)ccc(-c2cc(N)c(Cl)c(C(=O)NOCc3cncs3)n2)c1F,179 to 181 °C
13,O=C(O)CCc1cnn(-c2ccccc2)c1-c1ccccc1,159 to 160 °C
14,COC(=O)c1cc(Cl)cc(I)c1O,143 to 145 °C
15,NS(=O)(=O)c1ccc(-c2ccc(Cl)n2-c2ccc(Cl)cc2Cl)cc1,186 to 187 °C
16,CC(=O)OC1CSC(Oc2cncc(-c3cnccc3C)c2)C(OC(C)=O)C1OC(C)=O (stereo unspecified),165 °C
17,Cc1c(C)c2c(c(C)c1NC(=O)OC(C)(C)C)C(c1ccc(C(C)C)cc1)C(C)(C)O2 (stereo unspecified),119 to 120 °C
18,CC(C)n1nc(-c2cnc(NCc3ccccn3)nc2-c2ccccc2)ccc1=O,143 to 144 °C
19,CCOC(=O)c1cc(S(N)(=O)=O)c(Cl)cc1NCc1ccco1,163 to 165 °C
20,CS(=O)(=O)OCc1cc(-c2ccc3c(c2)CCO3)nn(Cc2ccc(Cl)cc2)c1=O,69 to 70 °C
21,O=c1c(-c2cccc(C(F)(F)F)c2Cl)nn(CCCCC(F)(F)F)c2cccc(Cl)c12,137 to 138 °C
22,CCOC(=O)c1cc(C(=O)OCC)c(N)[nH]1,147 to 149 °C
23,O=C(Nc1ccc2ccc(Cl)nc2n1)C1=CSCCO1,270 °C
24,CCCCc1nc(Cl)c(CC(=O)OCC)c(Cc2ccc(C(=O)OC(C)(C)C)cc2)n1,65 °C
25,CO/C=C(/C(=O)OC)n1cccc1,88 to 89 °C
26,OC1(CN2CC2)COc2ccccc2OC1,98 to 99.5 °C

row,SMILES,melting point
1,COC(=O)/C=C/c1ccc(CCC(C)NCC(O)c2cccc(Cl)c2)cc1 (stereo unspecified),87 to 89 °C
2,CCOC(=O)C1=C(O)c2cc3ccccc3n2CCC1,74 to 81 °C
3,CN(C)CCOc1ccc(CN2C(=O)C3(COc4cc5c(cc43)OCCO5)c3ccccc32)cc1 (stereo unspecified),77 to 79 °C
4,CCc1ccc(S(=O)(=O)CC#N)cc1,120 to 121 °C
5,CCCc1nn(-c2ccc(C(F)(F)F)cn2)cc1CCCOc1cccc(C(C)(C)C(=O)O)c1,82 to 83 °C
6,O=C(O)c1cn(C2COC2)c2c(F)c(F)c(F)c(O)c2c1=O,242 to 244 °C
7,O=C(O)[C@H](Cc1ccc(C(F)(F)F)cc1)[C@@H](O)c1ccccc1F (racemic),122 to 123 °C
8,CS(=O)(=O)c1ccc(-c2cnn(CC(F)(F)F)c(=O)c2Nc2cccc(F)c2)cc1,156 to 158 °C
9,O=C(O)COc1cccc2c1Cc1sc(SCC(c3ccccc3)c3ccccc3)nc1-2,207 to 210 °C
10,CC1(C)CN(C(=N)NC=C(C#N)C(=O)N(CC2CC2)c2cccc(C(F)(F)F)c2)C(=O)N1,121 to 122 °C
11,COc1ccc(C(=O)O)c2c1CCCC2,214 to 215 °C
12,COC(=O)C1CCCn2c(=O)n(CSC(C)=O)c(=O)n21 (stereo unspecified),100 to 102 °C
13,C#CCCCON1Sc2cccc3cccc1c23,56 to 59 °C
14,Cc1cc(Oc2ccc(S(C)(=O)=O)nc2)cc2cc(C3=NCC(CC(=O)NC[C@@H](C)O)S3)[nH]c12 (stereo partly specified),168 to 169 °C
15,CCCS(=O)c1cccc(-c2nc(=O)c3ccccc3s2)n1 (stereo unspecified),175 °C
16,Cc1nc(-c2ccc(CN3C(=O)C4(COc5cc6c(cc54)OCCO6)c4ccccc43)cc2)no1 (stereo unspecified),174 to 175 °C
17,Cc1cccc(NC(=O)NC2N=C(c3ccccc3F)c3ccccc3N(CCC3OCCO3)C2=O)c1 (racemic),214 to 215 °C
18,CN1CCC(c2cccc3ccc(-n4cnc5ncccc54)cc23)CC1,118 to 120 °C
19,CN(NC(=O)c1c(Cl)cccc1Cl)S(=O)(=O)c1ccccc1,177 to 178 °C
20,CCOc1nc(OCC)c([N+](=O)[O-])c(N2CCS(=O)CC2)n1,130 to 132 °C
21,Cn1nnnc1-c1cn(C)c2cc(S(C)=O)ccc2c1=O (stereo unspecified),237 to 240 °C
22,CNC(=O)c1c(I)c(N)c(I)c(N(CCO)C(C)=O)c1I,197 °C
23,N#Cc1c(I)c(C(=O)NCCO)c(I)c(C(=O)NCCO)c1I,300 °C
24,FC(F)(F)CSc1nc2ccccc2[nH]1,148 to 150 °C
25,C=CCc1cn(C2OC(CO)C(O)C2O)c(=O)nc1N (stereo unspecified),176 °C
